Read-outs that look alike come from different tables or passages of the source.
Columns and labels:
[1] = target: T1, recombinant human acid α-glucosidase (rhGAA) (Homo sapiens (Human), UniProt P10253); test: Inhibition of rhGAA determined by Fluopol-ABPP; type: binding; conditions: McIlvaine buffer pH 5.0, 37° C., TAMRA probe
From the text: The inhibiting activity on recombinant human acid α-glucosidase (rhGAA) of the compounds is implemented using the Fluopol-ABPP method (Fluorescence Polarization Activity Based Protein Profiling) described in the publication of Lahav et al., 2017, J. Am. Chem. Soc. 139: 14192-14197. This technique, based on the competition between an inhibitor and a fluorescent probe capable of binding covalently to the active site of an enzyme, makes it possible to measure the affinity of this inhibitor for the active site of the rhGAA enzyme used for these experiments by the laboratory of Professors Herman S. Overkleeft and Johanes M. F. G. Aerts, Leiden Institute of Chemistry, Leiden University (NL), is the enzyme marketed under the name Myozyme®. […] The […] (TAMRA) fluorescent probe in solution (25 nM) in the buffer is next added to the mixture. After 4 hours, the samples are irradiated with a polarized light (λ=530 nm) and the fluorescence emitted (λ=580 nm) is measured by means of an Infinite® M1000Pro (Tecan) spectrofluorimeter. For each concentration of inhibitor, the percentage of inhibition of the enzyme is determined by the formula:
%Inhibition=[Fmeasured−Fcontrol1)/Fcontro2)×100
The IC50 values are calculated by a non-linear regression of the % inhibition as a function of the concentration [I] by means of the GraphPad Prism 6.0 software. The results are a mean of three identical experiments (triplicates).

[2] = target: T1, recombinant human acid α-glucosidase (rhGAA); test: Inhibition of rhGAA determined by measuring the residual activity in vitro; type: biochemical; conditions: sodium acetate buffer pH 4.0, 37° C.; for IC50: 4-nitrophenyl-α-D-glucopyranoside substrate
rhGAA = rhGAA (Homo sapiens (Human), UniProt P10253); test: Thermal stabilization of rhGAA by DSF (differential scanning fluorimetry); type: binding
Protocol: The stabilization of rhGAA in the presence of the compounds is determined in accordance with the method described in the publication of Niesen et al., 2007, Nat. Protoc. 2: 2212-2221. The rhGAA enzyme (2.5 μg, 0.1 mg/mL) is incubated in the absence and in the presence of each compound (at a concentration [I]=100 μM), of SYPRO® orange dye (Life Technologies), and of sodium phosphate buffer (25 mM) and of NaCI (150 mM), pH 7.4 or of sodium acetate buffer (25 mmol) and of NaCl (150 mM), pH 4.0. The thermal stability of the enzyme in these various conditions is evaluated by DSF (differential scanning fluorimetry) by varying the temperature by 1° C./min over an interval of 25 to 95° C., and measuring the fluorescence of the SYPRO® orange dye every minute by means of a Real-Time Cycler spectrofluorimeter (Biorad). The relative fluorescence is determined by comparing each fluorescence value measured with that of the maximum fluorescence value of the SYPRO® orange dye for each scan. The results are a mean of three identical experiments (triplicates).

[3] = target: α-glucosidase II of the endoplasmic reticulum (GANAB) (Homo sapiens (Human), UniProt Q14697); test: Inhibition of GANAB in lysates of fibroblasts of Pompe patients; type: biochemical; conditions: pH 7.0, 4-methyl-umbelliferone-α-D-glucopyranoside 2.4 mM, 2 hours
Protocol: (§1) The selectivity of the compounds was evaluated in the laboratory of Professors Herman S. Overkleeft and Johanes M. F. G. Aerts, Leiden Institute of Chemistry, Leiden University (NL). The enzymes used for determining the selectivity of inhibition of the compounds with respect to various human enzymes are the α-glucosidase II of the endoplasmic reticulum (GANAB), recombinant human lysosomal β-glucocerebrosidase (GBA1), human non-lysosomal β-glucosylceramidase (GBA2) and β-glucosylceramide synthase (GCS). The inhibiting activity of the compounds on these various enzymes is determined as described in the publication by Artola et al., 2017, ACS Cent. Sci. 3: 784-793. The enzyme GBA1 sold under the name Cerezyme® and the enzyme rhGAA sold under the name Myozyme® are used. The human GANAB enzyme used for this study is that of fibroblasts of patients suffering from Pompe disease diagnosed as lacking active GAA and voluntary donors. These fibroblasts were cultivated on an HAMF12-DMEM medium (Sigma) supplemented by 10% (v/v) FCS (fetal calf serum). The GBA2 enzyme was over-expressed in HEK298T cells cultivated on a DMEM medium enriched with glucose (Gibco) supplemented by 10% NBS (newborn bovine serum) and 100 units/mL of penicillin/streptomycin (Gibco) and 5% CO2 at 37° C. The activity of the compounds on human β-glucosylceramide synthase (GCS) is evaluated in situ on cells of the RAW 264.7 type cultivated on an RPMI medium (Gibco) supplemented by 10% FCS, 1 mM of glutamax, 100 units/mL of penicillin/streptomycin (Gibco) and 5% CO2 at 37° C.
(§2) These cell lysates are homogenized using a SilentCrusher grinder (Heidolph®), and then subjected to ultracentrifugation at 32,000 rpm for 30 minutes at 4° C. The total protein concentration is determined in accordance with the Bradford method (Bradford, 1976, Anal. Biochem. 72: 248-254), using a Bradford BioRad Quick Start® kit (Pierce) and BSA (Sigma). The lysates are next aliquoted and stored at −80° C. before use.

[4] = target: recombinant human lysosomal β-glucocerebrosidase (GBA1) (Homo sapiens (Human), UniProt P04062, R534H); test: Inhibition of GBA1 (Cerezyme); type: biochemical; conditions: pH 5.2, 4-methyl-umbelliferone-β-D-glucopyranoside 3.0 mM, 30 minutes
Protocol: as §1

[5] = target: human non-lysosomal β-glucosylceramidase (GBA2) (Homo sapiens (Human), UniProt Q9HCG7); test: Inhibition of GBA2 in lysates of HEK298T cells over-expressing GBA2; type: biochemical; conditions: pH 5.8, 4-methyl-umbelliferone-β-D-glucopyranoside 3.0 mM, 1 hour
Protocol: as §1, §2
The residual activity of GBA2 in the presence of the compounds is determined after pre-incubation for 30 minutes of the homogenates of HEK298T cells over-expressing GBA2 with an inhibitor of GBA1, conduritol β-epoxide (Sigma), at a concentration of 1 mM.

[6] = target: β-glucosylceramide synthase (GCS) (Mus musculus (Mouse), UniProt O88693); test: Inhibition of GCS in situ in RAW 264.7 cells; type: cell-based; conditions: pH 7.0, 1 μM NBD-ceramide
Protocol: as §1, §2
The residual activity of GCS in the presence of the compounds is determined after pre-incubation for 1 hour of the homogenates of RAW 264.7 cells with an inhibitor of GBA1, conduritol β-epoxide (Sigma), at a concentration of 300 μM.
The I50 values for the GCS enzyme are determined in situ in the cell culture medium at pH 7.0 using 1 μM of NBD-ceramide (N-[12-[(7-nitro-2-1,3-benzoxadiazol-4-yl)amino]dodecanoyl]-D-erythro-sphingosine) as substrate, as described in the aforementioned publication of Lahav et al.

[7] = [I]=100 μM, pH 4.0, read-out: rhGAA ΔTm at pH 4.0
[8] = [I]=100 μM, pH 7.4, read-out: rhGAA ΔTm at pH 7.4

Sequence of human non-lysosomal β-glucosylceramidase (GBA2) (Q9HCG7 whole entry): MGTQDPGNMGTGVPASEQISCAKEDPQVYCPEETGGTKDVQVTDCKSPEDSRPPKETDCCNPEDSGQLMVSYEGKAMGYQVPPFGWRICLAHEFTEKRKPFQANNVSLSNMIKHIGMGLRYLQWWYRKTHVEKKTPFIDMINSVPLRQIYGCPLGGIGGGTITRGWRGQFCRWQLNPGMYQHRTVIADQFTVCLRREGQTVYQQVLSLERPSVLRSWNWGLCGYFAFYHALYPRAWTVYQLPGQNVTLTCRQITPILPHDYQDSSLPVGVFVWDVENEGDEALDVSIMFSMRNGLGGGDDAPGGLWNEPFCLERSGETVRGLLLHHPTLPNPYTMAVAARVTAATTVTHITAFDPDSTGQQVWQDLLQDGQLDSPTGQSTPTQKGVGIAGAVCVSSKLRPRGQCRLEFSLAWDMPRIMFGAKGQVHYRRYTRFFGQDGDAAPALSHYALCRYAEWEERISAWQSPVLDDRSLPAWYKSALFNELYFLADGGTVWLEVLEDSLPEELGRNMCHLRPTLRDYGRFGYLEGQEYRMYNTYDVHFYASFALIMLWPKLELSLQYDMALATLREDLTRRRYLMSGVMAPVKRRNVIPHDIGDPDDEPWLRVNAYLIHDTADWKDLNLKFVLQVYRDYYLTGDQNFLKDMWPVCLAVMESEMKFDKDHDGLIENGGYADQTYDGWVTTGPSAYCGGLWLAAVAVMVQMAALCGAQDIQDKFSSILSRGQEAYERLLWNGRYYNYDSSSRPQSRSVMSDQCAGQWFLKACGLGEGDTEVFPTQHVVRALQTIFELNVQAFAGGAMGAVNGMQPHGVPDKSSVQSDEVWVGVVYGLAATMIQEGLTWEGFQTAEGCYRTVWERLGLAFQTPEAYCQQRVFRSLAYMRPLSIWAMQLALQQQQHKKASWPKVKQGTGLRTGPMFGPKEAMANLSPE
Sequence of β-glucosylceramide synthase (GCS) (O88693 whole entry): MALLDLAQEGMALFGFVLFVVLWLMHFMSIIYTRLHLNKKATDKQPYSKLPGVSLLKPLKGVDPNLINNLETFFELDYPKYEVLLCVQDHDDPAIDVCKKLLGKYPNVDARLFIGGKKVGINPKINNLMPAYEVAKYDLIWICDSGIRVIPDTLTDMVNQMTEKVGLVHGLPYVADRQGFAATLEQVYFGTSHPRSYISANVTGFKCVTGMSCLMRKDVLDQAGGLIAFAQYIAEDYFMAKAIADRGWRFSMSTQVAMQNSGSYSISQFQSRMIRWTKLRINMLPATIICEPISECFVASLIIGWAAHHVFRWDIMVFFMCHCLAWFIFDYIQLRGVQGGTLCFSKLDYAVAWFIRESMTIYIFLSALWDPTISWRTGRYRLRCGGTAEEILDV
Sequence of recombinant human lysosomal β-glucocerebrosidase (GBA1) (P04062 40-536 R534H limits assumed): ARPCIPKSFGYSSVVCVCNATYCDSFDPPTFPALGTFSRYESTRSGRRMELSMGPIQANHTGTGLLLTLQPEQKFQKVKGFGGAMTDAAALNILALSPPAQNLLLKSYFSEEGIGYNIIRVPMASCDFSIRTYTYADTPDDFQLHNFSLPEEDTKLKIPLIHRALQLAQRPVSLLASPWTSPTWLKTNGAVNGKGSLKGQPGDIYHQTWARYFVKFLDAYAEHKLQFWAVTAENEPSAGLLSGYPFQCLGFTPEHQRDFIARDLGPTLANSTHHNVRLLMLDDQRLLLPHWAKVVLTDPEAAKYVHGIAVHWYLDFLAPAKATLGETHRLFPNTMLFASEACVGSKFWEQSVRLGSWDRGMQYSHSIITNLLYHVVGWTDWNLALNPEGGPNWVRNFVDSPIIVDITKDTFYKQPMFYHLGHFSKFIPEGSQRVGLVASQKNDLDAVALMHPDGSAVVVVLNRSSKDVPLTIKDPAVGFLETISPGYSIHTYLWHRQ
Sequence of α-glucosidase II of the endoplasmic reticulum (GANAB) (Q14697 29-944): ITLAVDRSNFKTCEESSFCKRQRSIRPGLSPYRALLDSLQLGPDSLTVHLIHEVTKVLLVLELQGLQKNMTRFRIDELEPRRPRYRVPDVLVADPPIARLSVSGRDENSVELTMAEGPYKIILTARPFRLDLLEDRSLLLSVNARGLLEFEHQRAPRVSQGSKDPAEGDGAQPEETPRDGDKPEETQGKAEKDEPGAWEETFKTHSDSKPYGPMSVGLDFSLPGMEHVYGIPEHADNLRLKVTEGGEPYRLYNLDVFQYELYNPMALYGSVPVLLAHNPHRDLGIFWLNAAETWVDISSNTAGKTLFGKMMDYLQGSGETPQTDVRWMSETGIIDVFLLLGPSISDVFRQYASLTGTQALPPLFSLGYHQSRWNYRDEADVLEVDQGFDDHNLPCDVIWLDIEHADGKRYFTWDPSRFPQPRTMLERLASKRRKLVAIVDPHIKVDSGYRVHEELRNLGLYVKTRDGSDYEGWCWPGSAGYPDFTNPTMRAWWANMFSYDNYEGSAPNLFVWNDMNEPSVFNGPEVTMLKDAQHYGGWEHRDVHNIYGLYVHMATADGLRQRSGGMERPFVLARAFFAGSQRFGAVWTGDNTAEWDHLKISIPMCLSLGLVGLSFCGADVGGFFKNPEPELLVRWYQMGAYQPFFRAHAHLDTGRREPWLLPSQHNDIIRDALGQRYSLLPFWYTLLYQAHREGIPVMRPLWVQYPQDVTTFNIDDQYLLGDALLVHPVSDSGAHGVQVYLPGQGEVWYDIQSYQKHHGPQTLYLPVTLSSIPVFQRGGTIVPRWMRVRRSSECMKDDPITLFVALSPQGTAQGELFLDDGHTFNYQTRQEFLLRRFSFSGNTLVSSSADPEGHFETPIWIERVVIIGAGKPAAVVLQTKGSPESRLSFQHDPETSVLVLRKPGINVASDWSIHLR
Sequence of α-glucosidase II of the endoplasmic reticulum (GANAB) (P14314 15-528 partner): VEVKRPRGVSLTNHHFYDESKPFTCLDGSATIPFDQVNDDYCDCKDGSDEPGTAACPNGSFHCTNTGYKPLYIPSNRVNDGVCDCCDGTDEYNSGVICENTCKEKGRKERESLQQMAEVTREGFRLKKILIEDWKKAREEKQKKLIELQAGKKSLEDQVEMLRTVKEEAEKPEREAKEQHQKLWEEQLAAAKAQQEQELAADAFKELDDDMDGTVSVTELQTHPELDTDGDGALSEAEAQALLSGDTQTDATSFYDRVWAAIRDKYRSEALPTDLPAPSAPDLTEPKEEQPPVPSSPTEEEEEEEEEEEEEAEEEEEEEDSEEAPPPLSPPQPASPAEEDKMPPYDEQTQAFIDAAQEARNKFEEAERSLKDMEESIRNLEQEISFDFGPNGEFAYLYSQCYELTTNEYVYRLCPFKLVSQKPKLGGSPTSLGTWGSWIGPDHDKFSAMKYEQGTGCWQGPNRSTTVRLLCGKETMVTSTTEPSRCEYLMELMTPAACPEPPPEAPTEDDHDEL

Compound | IC50 [1] | IC50 [2] | ΔTm at 100 µM (rhGAA; [8]) | IC50 [3] | IC50 [4] | IC50 [5] | IC50 [6] | Ki [2] | other results
OC[C@]12[C@@H](O)[C@H](O)[C@@H](O)CN1[C@@H]2C(O)c1ccccc1 (stereo in doubt) [Compound (IIm), (3S,4R,5R,6R,7S)-7-((S)-hydroxy(phenyl)methyl)-6-(hydroxymethyl)-1-azabicyclo[4.1.0]heptane-3,4,5-triol] | 45000 nM | – | – | – | – | – | – | – | –
CC[C@]1(CO)NC[C@H](O)[C@@H](O)[C@@H]1O [(IIa), (2R,3R,4R,5S)-2-ethyl-2-(hydroxymethyl)piperidine-3,4,5-triol] | 420 nM | 341 µM | 12.7 °C | > 100 µM | > 1 mM | > 1 mM | > 50 µM | – | ΔTm at 100 µM (rhGAA; [7]): 8.1 °C
CCC[C@]1(CO)NC[C@H](O)[C@@H](O)[C@@H]1O [(IIb), (2R,3R,4R,5S)-2-(hydroxymethyl)-2-propylpiperidine-3,4,5-triol] | 390 nM | 104 µM | 11.5 °C | > 100 µM | > 1 mM | > 1 mM | > 50 µM | 13 µM | ΔTm at 100 µM (rhGAA; [7]): 7.8 °C
OC[C@@]1(CCc2ccccc2)NC[C@H](O)[C@@H](O)[C@@H]1O [(IIc), (2R,3R,4R,5S)-2-(hydroxymethyl)-2-phenethylpiperidine-3,4,5-triol] | 220 nM | 37.2 µM | 13 °C | > 100 µM | > 1 mM | > 1 mM | > 50 µM | 7.6 µM | ΔTm at 100 µM (rhGAA; [7]): 11.8 °C
OCC[C@]1(CO)NC[C@H](O)[C@@H](O)[C@@H]1O [(IId), (2R,3R,4R,5S)-2-(2-hydroxyethyl)-2-(hydroxymethyl)piperidine-3,4,5-triol] | 150 nM | 182 µM | 10.7 °C | > 100 µM | > 1 mM | > 1 mM | > 50 µM | 18.9 µM | ΔTm at 100 µM (rhGAA; [7]): 9.4 °C
OC[C@@]12CCCCN1C[C@H](O)[C@@H](O)[C@@H]2O [(IIf), (1R,2R,3S,9aR)-9a-(hydroxymethyl)octahydro-1H-quinolizine-1,2,3-triol] | 870 nM | 297 µM | 11.8 °C | > 100 µM | > 1 mM | > 1 mM | > 50 µM | – | ΔTm at 100 µM (rhGAA; [7]): 6.4 °C
OC[C@@]12CCCN1C[C@H](O)[C@@H](O)[C@@H]2O [(IIg), (6S, 7R, 8R, 8aR)-8a-(hydroxymethyl)-octahydroindolizine-6,7,8-triol] | 460 nM | 387 µM | – | > 100 µM | > 1 mM | > 1 mM | > 50 µM | – | ΔTm at 100 µM (rhGAA; read-out: rhGAA ΔTm at pH 4.0): 6.7 °C; ΔTm at 100 µM (rhGAA; read-out: rhGAA ΔTm at pH 7.4): 14.4 °C
CCCCC[C@]1(CO)NC[C@H](O)[C@@H](O)[C@@H]1O [Compound (IIb1), (2R,3R,4R,5S)-2-(hydroxymethyl)-2-pentylpiperidine-3,4,5-triol] | – | 49.1 µM | 6.2 °C | – | – | – | – | 6.4 µM | –
CCCCCCC[C@]1(CO)NC[C@H](O)[C@@H](O)[C@@H]1O [Compound (IIb3), (2R,3R,4R,5S)-2-heptyl-2-(hydroxymethyl)piperidine-3,4,5-triol] | – | 29.6 µM | 16.9 °C | – | – | – | – | 10.8 µM | –
OC[C@@]1(CCC2CCCCC2)NC[C@H](O)[C@@H](O)[C@@H]1O [Compound (IIb7), (2R,3R,4R,5S)-2-(2-cyclohexylethyl)-2-(hydroxymethyl)piperidine-3,4,5-triol] | – | – | 16.8 °C | – | – | – | – | – | –
OC[C@@]1(CCCc2ccccc2)NC[C@H](O)[C@@H](O)[C@@H]1O [Compound (IIc1), (2R,3R,4R,5S)-2-(hydroxymethyl)-2-(3-phenylpropyl)piperidine-3,4,5-triol] | – | 32.9 µM | 15 °C | – | – | – | – | 13 µM | –
OC[C@@]12CCN1C[C@H](O)[C@@H](O)[C@@H]2O [Compound (IIh), (3S,4R,5R,6R)-6-(hydroxymethyl)-1-azabicyclo[4.2.0]octane-3,4,5-triol] | 9700 nM | – | – | – | – | – | – | – | –
OC[C@@H](O)[C@H]1N2C[C@H](O)[C@@H](O)[C@H](O)[C@]12CO (stereo partly drawn) [Compound (IIj), (3S,4R,5R,6R,7S)-7-((S)-1,2-dihydroxyethyl)-6-(hydroxymethyl)-1-azabicyclo[4.1.0]heptane-3,4,5-triol] | 15200 nM | – | – | – | – | – | – | – | –
OC[C@H]1N2C[C@H](O)[C@@H](O)[C@H](O)[C@]12CO (stereo partly drawn) [Compound (IIk), (3S,4R,5R,6R,7S)-6,7-bis(hydroxymethyl)-1-azabicyclo[4.1.0]heptane-3,4,5-triol] | 11600 nM | – | – | – | – | – | – | – | –
OC[C@]12[C@@H](O)[C@H](O)[C@@H](O)CN1[C@@H]2[C@H](O)C1CCCCC1 (stereo partly drawn) [Compound (IIn), (3S,4R,5R,6R,7S)-7-((R)-cyclohexyl(hydroxy)methyl)-6-(hydroxymethyl)-1-azabicyclo[4.1.0]heptane-3,4,5-triol] | 24600 nM | – | – | – | – | – | – | – | –
OC[C@@]1(CCC23CC4CC(CC(C4)C2)C3)NC[C@H](O)[C@@H](O)[C@@H]1O [Compound (IIr)] | – | 29.5 µM | – | – | – | – | – | 20 µM | rhGAA ΔTm at pH 7.4 (rhGAA; [I]=100 μM, pH 7.4): 14.5 °C
C[Si](C)(C)CC[C@]1(CO)NC[C@H](O)[C@@H](O)[C@@H]1O [Compound (IIx1), (2R,3R,4R,5S)-2-(hydroxymethyl)-2-(2-(trimethylsilyl)ethyl)piperidine-3,4,5-triol] | – | 40.3 µM | 16.5 °C | – | – | – | – | – | –
